In PMC12406203 (Journal of Medicinal Chemistry, 2025):

How the values were obtained:
[1] = test system: scopolamine-induced cognitive deficits in mice; test: Novel object recognition task, scopolamine-induced amnesia; assay type: in vivo; conditions: for efficacy in NOR task: 5 mg/kg i.p., scopolamine model; for preference for the novel object (NOR task): 10 mg/kg i.p., vs mice treated with scopolamine alone
Text: In the scopolamine model, the PA and NOR tasks were used for dose selection for further testing.
The mice had unlimited access to food and water prior to the experiment. Specified conditions for the maintenance of mice were ensured throughout the experiment, including tree bedding (Transwior, Poland) and cage enrichment (tunnels, nesting material, wooden igloos, etc.). For behavioral tests, the mice were selected randomly; each group consisted of 7–10 mice. […] The procedures for maintenance and treatment of laboratory animals were approved by the first Local Ethics Committee in Krakow (Approval No. 645/2022, 760/2023, and 829/2024 and the treatment of animals was in full accordance with ethical standards laid down in respective Polish and EU regulations (Directive 2010/63/EU).
Scopolamine hydrobromide (Sigma-Aldrich, Poland) at the dose of 1 mg/kg was used to induce learning and memory deficits. For the in vivo tests, scopolamine was prepared in distilled water (Polfa Kutno, Poland) and was administered subcutaneously (s.c.) 30 min before behavioral tests during the acquisition (training) trial of PA and NOR tasks. […] They were administered intraperitoneally (i.p.) 60 min before the acquisition trial of the PA, NOR, and MWM tasks.
The experiment was conducted in opaque black boxes with dimensions of 50 × 50 × 50 cm. The 3 day procedure consists of habituation to the test arena (without any objects) for 10 min on the first day (T0), a training trial (T1), and a testing trial (T2) separated by a 24 h intertrial interval. During T1 (familiarization trial), two identical objects (A and B) were presented in the opposite corners of the arena, approximately 5 cm from its walls. During T2 (recognition trial), one of the objects (B) was replaced by a novel object (C), so that the animals were presented with A (familiar) and C (novel) objects. Both T1 and T2 trials lasted for 10 min, and after each trial, the animals returned to their home cages. White plastic round containers (height 5 cm, diameter 5 cm) attached to the ground with double-sided tape were used as the A, B objects, and green cuboids of similar height were used as object C. The objects were stable enough so that the animals could not displace them. The sequence of presentations and the location of the objects were randomly assigned to each mouse. The animals explored the objects by looking, licking, sniffing, or touching them while sniffing, but not when leaning against, standing, or sitting on the objects. Any mouse exploring the two objects for less than 5 s within the 10 min duration of T1 or T2 was eliminated from the study. An experimenter, blind to the drug treatment, measured the exploration time of the objects.

panel of 103 kinases = test: KINOMEscan kinase selectivity profiling (whole panel); assay type: binding; conditions: 10 and 1 μM
Experimental: The kinase inhibition profile of compounds 94 and 95 was assessed against 103 protein kinases by Eurofins DiscoverX, LLC., using the KINOMEscan assay. Kinase-tagged T7 phage strains were grown in parallel in 24-well blocks in an E. coli host derived from the BL21 strain. E. coli were grown to log-phase and infected with T7 phage from a frozen stock (multiplicity of infection = 0.4) and incubated with shaking at 32 °C until lysis (90–150 min). The lysates were centrifuged (6000g) and filtered (0.2 μm) to remove cell debris. The remaining kinases were produced in HEK-293 cells and subsequently tagged with DNA for qPCR detection. […] The liganded beads were blocked with excess biotin and washed with blocking buffer (SeaBlock (Pierce), 1% BSA, 0.05% Tween 20, 1 mM DTT) to remove unbound ligand and to reduce nonspecific phage binding. […] Test compounds were prepared as 100× stocks in 100% DMSO and directly diluted into the assay. All reactions were performed in polypropylene 384-well plates in a final volume of 0.02 mL. […] The kinase concentration in the eluates was measured by qPCR.
The compound(s) were screened at the concentration(s) requested, and results for primary screen binding interactions are reported as RA (%), where lower numbers indicate stronger hits in the matrix. RA=(testcompoundsignal−PCsignal/NCsignal−PCsignal)×100
Test compound = Cpd. […]

| Structure (SMILES) | RA @ 1000nM (AKT1) [%] | RA @ 10000nM (AKT1) [%] | RA @ 1000nM (PLK3) [%] | RA @ 10000nM (PLK3) [%] | RA at 100 µM (hAChE) [%] | efficacy in NOR task [1] | preference for the novel object (NOR task) [1] | RA @ 1000nM (SRC) [%] | RA @ 10000nM (SRC) [%] | RA @ 1000nM (MKNK1) [%] | RA @ 10000nM (MKNK1) [%] | kinase selectivity (panel of 103 kinases) | RA @ 1000nM (GSK3B) [%] | RA @ 10000nM (GSK3B) [%] | RA @ 1000nM (PLK4) [%] | RA @ 10000nM (PLK4) [%] | RA @ 1000nM (AURKB) [%] | RA @ 10000nM (AURKB) [%] |
| --- | --- | --- | --- | --- | --- | --- | --- | --- | --- | --- | --- | --- | --- | --- | --- | --- | --- | --- |
| CN(C)CCNC(=O)c1cc2c(cnn2CC2CCCCC2)cc1Cc1ccc(F)cc1F [Compound 95, 1-(Cyclohexylmethyl)-5-(2,4-difluorobenzyl)-N-(2-(dimethylamino)ethyl)-1H-indazole-6-carboxamide] | 100 | 100 | 88 | 100 | 53.4 ± 0.8 | statistically ineffective | statistically significant preference for the novel object | 100 | 93 | 100 | 100 | high selectivity for p38α MAPK | 100 | 80 | 100 | 100 | 99 | 71 |
| CC(C)Cn1ncc2cc(Cc3ccc(F)cc3F)c(C(=O)NCCN(C)C)cc21 [Compound 94, 5-(2,4-Difluorobenzyl)-N-(2-(dimethylamino)ethyl)-1-isobutyl-1H-indazole-6-carboxamide] | 100 | 75 | 100 | 97 | – | statistically ineffective | statistically significant preference for the novel object | 100 | 94 | 100 | 100 | high selectivity for p38α MAPK | 91 | 97 | 100 | 100 | 84 | 68 |
